Source: patent publication US8614064B2, “Methods of diagnosing atherosclerosis by measuring ApoCI” (The Johns Hopkins University, priority 2003, dated 2013)

Key:
acid sphingomyelinase = biological target: T1, acid sphingomyelinase (Homo sapiens, UniProt P17405); experiment: Acid sphingomyelinase activity in cultured human ASMC (specificity of GW4869); type: cell-based; conditions: with GW4869; control 400 nmol/mg protein; did not alter
T1 construct: acid sphingomyelinase activity (control: 400 nmol/mg protein; GW4869: 340 nmol/mg protein) in cultured human ASMC; host or cells: cultured human ASMC
T1 sequence (P17405 47-631): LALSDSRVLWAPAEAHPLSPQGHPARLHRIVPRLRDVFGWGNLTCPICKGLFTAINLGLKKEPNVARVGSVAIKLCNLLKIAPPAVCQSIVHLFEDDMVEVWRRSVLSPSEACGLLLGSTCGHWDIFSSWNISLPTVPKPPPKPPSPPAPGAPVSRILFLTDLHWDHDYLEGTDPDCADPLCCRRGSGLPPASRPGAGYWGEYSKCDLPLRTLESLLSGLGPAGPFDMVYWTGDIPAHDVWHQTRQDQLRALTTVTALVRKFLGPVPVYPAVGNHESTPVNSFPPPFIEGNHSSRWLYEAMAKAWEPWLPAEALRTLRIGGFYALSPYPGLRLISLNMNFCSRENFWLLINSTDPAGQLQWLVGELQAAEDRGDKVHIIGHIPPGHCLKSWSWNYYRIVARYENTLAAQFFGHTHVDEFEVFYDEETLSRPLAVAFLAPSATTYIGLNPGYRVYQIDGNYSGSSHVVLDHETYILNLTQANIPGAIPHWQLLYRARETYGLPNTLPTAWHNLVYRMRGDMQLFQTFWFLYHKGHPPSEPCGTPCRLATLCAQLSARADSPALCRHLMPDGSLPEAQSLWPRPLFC

[1] = biological target: T2, lecithin cholesterol acyl transferase (Homo sapiens, UniProt P04180); conditions: % of that of apoA-I; Soutar et al. 1975; cited from earlier work
T2 sequence (P04180 25-440): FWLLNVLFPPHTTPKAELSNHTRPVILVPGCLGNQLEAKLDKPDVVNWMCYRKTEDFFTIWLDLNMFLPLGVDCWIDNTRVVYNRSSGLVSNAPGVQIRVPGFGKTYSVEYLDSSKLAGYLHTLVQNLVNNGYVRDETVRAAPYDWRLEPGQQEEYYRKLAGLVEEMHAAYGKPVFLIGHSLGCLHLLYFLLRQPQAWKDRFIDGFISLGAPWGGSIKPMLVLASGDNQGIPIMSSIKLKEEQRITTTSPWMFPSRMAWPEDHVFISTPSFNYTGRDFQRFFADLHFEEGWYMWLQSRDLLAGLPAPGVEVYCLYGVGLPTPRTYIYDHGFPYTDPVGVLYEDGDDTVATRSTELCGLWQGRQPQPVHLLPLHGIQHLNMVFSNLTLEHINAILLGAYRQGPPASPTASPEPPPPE

SR-BI = experiment: Western measurement of scavenger receptor BI level in AoSMC; type: cell-based, human; conditions: ApoCI-treated cells
Description: (§1) Confluent cultures of AoSMC were preincubated with serum-free medium for 30 min and then treated with ApoCI (2.5 μg/ml medium), HMS (58.8 μg apoA-I/ml medium and 6.2 μg ApoCI/ml medium), and C2-Ceramide (30 μM). At indicated time periods cells were harvested in PBS and pellets lysed in 10 mM HEPES buffer (pH 7.4) 5 mM EDTA, 0.25 mM EGTA, 50 mM NaF, 0.35 M sucrose, 0.1% Nonidet P-40 and protease inhibitors 2 μg/ml aprotinin, 10 μg/ml leupeptin, 5 μg/ml pepstatin, and 1 mM PMSF. Protein concentration was determined using BCA-kit (Pierce, Rockford, Ill.). 100 μg of protein was subjected to electrophoresis in denaturing conditions on 4-15% polyacrylamide gel and electro transferred onto nitrocellulose (BioRad, Rochester, N.Y.). After the transfer, membranes were blocked for 1 h at room temperature in TBS-T/5% milk. Western assay was performed using rabbit caveolin-I (1:1000), SR-BI (1:5000) or goat ABCA1 (1:1000) primary antibody (Santa Cruz Biotechnology, Santa Cruz, Calif.) and horseradish peroxidase-conjugated anti-rabbit or anti-goat antibody (Amersham Pharmacia Biotech, Piscataway, N.J.). Blots were developed using ECL^plus Western blotting detection reagents (Amersham Pharmacia Biotech) and were scanned by laser densitometry. The intensity of the signals were quantified with the ImageGuant program (Molecular Dynamic, Sunnyvale, Calif.).

Src kinase = experiment: Analysis of p53/p56 Lyn (Src) kinase expression in AoSMC; type: cell-based, human; conditions: ApoCI-treated cells
Description: Confluent cultures of AoSMC were incubated with ApoCI (2.5 μg/ml medium), ApoCIII (2.5 μg/ml medium), ApoCI-enriched HDL (1 μg apoA-I/ml medium), or […] (5 μg apoA-I/ml medium). Cells were harvested in PBS at various time intervals and stored frozen in the presence of the protease inhibitor cocktail above. Western analysis for p53/p56 Lyn kinase was performed using primary anti-Lyn p53/p56 antibody (1:300) (Santa Cruz Biotechnology) and chemiluminescence (Amersham Pharmacia Biotech, Piscataway, N.J.).

caveolin = experiment: Western measurement of caveolin-I level in AoSMC; type: cell-based, human; conditions: ApoCI-treated cells
Description: as §1

ABC-A1 = experiment: Western measurement of ABC transporter ABCA1 level in AoSMC; type: cell-based, human; conditions: ApoCI-treated cells
Description: as §1

acid sphingomyelinase activity (acid sphingomyelinase) [nmol/mg protein]	effect on Src kinase (Src kinase)	Compound	stimulation of lecithin cholesterol acyl transferase relative to apolipoprotein A-I [1] [%]	cellular level of the scavenger receptor binding protein (SR-BI) (SR-BI)	level of caveolin (caveolin)	cellular level of the ATP binding cassette (ABC-A1) protein (ABC-A1)
340	–	O=C(/C=C/c1ccc(/C=C/C(=O)Nc2ccc(C3=NCCN3)cc2)cc1)Nc1ccc(C2=NCCN2)cc1 [GW4869]	–	–	–	–
–	stimulated	Apolipoprotein C-I (TPDVSSALDKLKEFGNTLEDKARELISRIKQSELSAKMREWFSETFQKVKEKLKIDS; UniProt P02654 27-83, looked up) [ApoCI, 6.6-kDa single-chain plasma protein of 57 amino acids; purified human ApoCI purchased from Academy Bio-Medical Company]	~80	transiently and significantly decreased	did not alter	transiently and significantly decreased
